Measurements published in publication PMC9735621, “Synthesis, Biological Evaluation and Computational Studies of New Hydrazide Derivatives Containing 1,3,4-Oxadiazole as Antitubercular Agents” (International Journal of Molecular Sciences, 2022).
Several values for one entry are separate records, joined by “and”; a condition that tells them apart may be missing. Equal entries are not always repeated. Where two headings read alike, the source gives them in different places.

Experiments:
[1] = test system: M. tuberculosis H37Rv; test: microbe, parasite or virus in culture; type: cell-based; details: Mycobacterium tuberculosis
[2] = test system: M. tuberculosis H37Ra; test: microbe, parasite or virus in culture; type: cell-based, Mycobacterium tuberculosis
[3] = Cytotoxicity, resazurin cell viability assay; type: cell-based, human; details: human, SH-SY5Y neuroblastoma cells; SH-SY5Y cells, 48 h; mean ± SEM
Procedure: (§1) Cell viability was assayed by using Resazurin (SERVA Electrophoresis GmbH, Heidelberg, Germany). This cell-permeable dye is reduced by aerobic respiration of metabolically active cells to resorufin, whose fluorescence is proportional to the number of live cells. The stock solution of resazurin sodium salt (440 μM, 10×) was resuspended in Phosphate Buffered Saline (PBS) and stored at −20 °C. Working solution (44 μM) was prepared on the same day of each assay by diluting resazurin stock solution in a standard culture medium. The human neuroblastoma cell line SH-SY5Y was used to test the cytotoxicity of five selected compounds (1h, and 1k–n). The cells were maintained in Dulbecco’s modified Eagle’s medium (DMEM; Gibco, Life Technologies Inc., Frederick, MD, USA) supplemented with 10% (v/v) fetal bovine serum (FBS) and Antibiotic Antimycotic Solution (100 U penicillin, 100 μg/mL streptomycin and 0.25 μg/mL amphotericin B; Sigma-Aldrich, St. Louis, MO, USA) at 37 °C in a humidified incubator with a 5% CO2/95% air atmosphere.
(§2) In the cytotoxicity tests, SH-SY5Y cells were seeded at a density of 5 × 10^3 cells/well in a 96-well plate and grown for another 24 h. Cells were then treated in triplicate with serial dilutions (100 μM, 50 μM, 25 μM, 12.5 μM, 6.25 μM, 3.125 μM) of selected compounds. After 48 h, the culture medium in each well was replaced with 100 μL of Resazurin working solution (44 μM). The fluorescent signal of the resorufin was monitored with Excitation λ = 530 nm and Emission λ = 590 nm by using an Envision 2104 Multi-label Microplate Reader (Perkin Elmer, Boston, MA, USA). Measurements were performed at time 0 and after 1 h of incubation. The percentage of viability was calculated after subtraction of the background (obtained by killing the cells), on the basis of the ratio between the fluorescence values of the cells incubated with a compound and the fluorescence values of cells incubated with the solvent (1% DMSO). The viability of cells incubated with 1% DMSO was considered to be equivalent to 100%. The statistical analysis was carried out with GraphPad Prism 6 (GraphPad Software, Inc., La Jolla, CA, USA) software using an unpaired t-test, and a p-value < 0.05 was considered statistically significant. Cytotoxicity (CC50) was determined from dose-response curves analyzed by using GraphPad Prism software.

[4] = test system: SH-SY5Y cells; test: Cytotoxicity, resazurin cell viability assay; type: cell-based, human; details: for Cytotoxicity (in words): SH-SY5Y cells, tested concentrations up to 100 μM; for Viability (%) vs DMSO: SH-SY5Y, 48 h, average ± SEM
Procedure: as §1, §2

[5] = Mycobacterium tuberculosis, H37RA

SMILES | MIC [1] [µg/mL] | MIC [2, 5] | melting point [°C] | MIC [2] | MIC ([1]; […], value in brackets) [µM] | CC50 at 48 h [3] [µM] | Cytotoxicity (in words) [4] | Viability (%) vs DMSO ([4]; 3.125 µM) [%] | Viability (%) vs DMSO ([4]; 6.25 µM) [%] | Viability (%) vs DMSO ([4]; 12.5 µM) [%] | Viability (%) vs DMSO ([4]; 25 µM) [%] | Viability (%) vs DMSO ([4]; 50 µM) [%] | Viability (%) vs DMSO ([4]; 100 µM) [%]
Cc1ccc(C=NNC(=O)c2nnc(-c3ccccc3)o2)cc1 (mixture of isomers) [1j, (E/Z)-N’-(4-methylbenzyliden)-5-phenyl-1,3,4-oxadiazol-2-carbohydrazide] | > 64 | 16 µg/mL and 52.2 µM | 200 to 202 |  |  |  |  |  |  |  |  |  | 
O=C(N/N=C\c1ccccc1)c1nnc(-c2ccncc2)o1 [1a, (Z)-N’-benzyliden-5-(pyridin-4-yl)-1,3,4-oxadiazol-2-carbohydrazide] | > 64 | 64 µg/mL and 218 µM | 207 to 209 |  |  |  |  |  |  |  |  |  | 
O=C(N/N=C\c1ccc(Cl)cc1)c1nnc(-c2ccncc2)o1 [1b, (Z)-N’-(4-chlorobenzyliden)-5-(pyridin-4-yl)-1,3,4-oxadiazol-2-carbohydrazide] | > 64 | > 64 µg/mL |  | >64 (-) μg/mL |  |  |  |  |  |  |  |  | 
Cc1ccc(/C=N\NC(=O)c2nnc(-c3ccncc3)o2)cc1 [1c, (Z)-N’-(4-methylbenzyliden)-5-(pyridin-4-yl)-1,3,4-oxadiazol-2-carbohydrazide] | > 64 | 64 µg/mL and 195 µM |  |  |  |  |  |  |  |  |  |  | 
O=C(N/N=C\c1ccc[nH]1)c1nnc(-c2ccncc2)o1 [1d, (Z)-N’-((1H-pyrrol-2-yl)methylen)-5-(pyridin-4-yl)-1,3,4-oxadiazol-2-carbohydrazide] | > 64 | 64 µg/mL and 226 µM |  |  |  |  |  |  |  |  |  |  | 
O=C(N/N=C\c1ccccn1)c1nnc(-c2ccncc2)o1 [1e, (Z)-N’-(pyridin-2-ylmethylen)-5-(pyridin-4-yl)-1,3,4-oxadiazol-2-carbohydrazide] | 16 | 32 µg/mL and 108 µM | 255 to 259 |  | 54 |  |  |  |  |  |  |  | 
O=C(N/N=C\c1ccncc1)c1nnc(-c2ccncc2)o1 [1f, (Z)-5-(pyridin-4-yl)-N’-(pyridin-4-ylmethylen)-1,3,4-oxadiazol-2-carbohydrazide] | > 64 | 64 µg/mL and 217 µM |  |  |  |  |  |  |  |  |  |  | 
O=C(N/N=C\c1ccco1)c1nnc(-c2ccncc2)o1 [1g, (Z)-N’-(furan-2-ylmethylen)-5-(pyridin-4-yl)-1,3,4-oxadiazol-2-carbohydrazide] | > 64 | 64 µg/mL and 226 µM | 236 to 242 |  |  |  |  |  |  |  |  |  | 
O=C(N/N=C\c1ccccc1)c1nnc(-c2ccccc2)o1 [1h, (Z)-N’-benzyliden-5-phenyl-1,3,4-oxadiazol-2-carbohydrazide] | > 64 | 8 µg/mL and 27.4 µM | 194 to 196 |  |  | > 100 | no cytotoxicity at tested concentrations | 100 ± 13 | 99 ± 13 | 99 ± 11 | 99 ± 15 | 100 ± 14 | 97 ± 12
O=C(N/N=C\c1ccc(Cl)cc1)c1nnc(-c2ccccc2)o1 [1i, (Z)-N’-(4-chlorobenzyliden)-5-phenyl-1,3,4-oxadiazol-2-carbohydrazide] | > 64 | 16 µg/mL and 48.9 µM | 243 to 245 |  |  |  |  |  |  |  |  |  | 
O=C(N/N=C\c1ccc[nH]1)c1nnc(-c2ccccc2)o1 [1k, (Z)-N’-((1H-pyrrol-2-yl)methylen)-5-phenyl-1,3,4-oxadiazol-2-carbohydrazide] | 8 | 8 µg/mL and 28.3 µM | 185 to 187 |  | 28.3 | 50 ± 6 |  | 100 ± 13 | 100 ± 13 | 101 ± 14 | 81 ± 12 | 49 ± 7 | 37 ± 6
O=C(N/N=C\c1ccccn1)c1nnc(-c2ccccc2)o1 [1l, (Z)-5-phenyl-N’-(pyridin-2-ylmethylen)-1,3,4-oxadiazol-2-carbohydrazide] | 8 | 8 µg/mL and 27.4 µM | 242 to 243 |  | 27.1 | 100 ± 12 |  | 100 ± 12 | 100 ± 12 | 98 ± 13 | 93 ± 13 | 70 ± 10 | 49 ± 7
O=C(N/N=C\c1ccncc1)c1nnc(-c2ccccc2)o1 [1m, (Z)-5-phenyl-N’-(pyridin-4-ylmethylen)-1,3,4-oxadiazol-2-carbohydrazide] | > 64 | 8 µg/mL and 27.4 µM | 243 to 245 |  |  | 128 ± 16 |  | 100 ± 14 | 100 ± 14 | 98 ± 16 | 96 ± 14 | 87 ± 11 | 61 ± 9
O=C(N/N=C\c1ccco1)c1nnc(-c2ccccc2)o1 [1n, (Z)-N’-(furan-2-ylmethylen)-5-phenyl-1,3,4-oxadiazol-2-carbohydrazide] | 16 | 8 µg/mL and 28.3 µM | 221 to 223 |  | 56.6 | > 100 | no cytotoxicity at tested concentrations | 100 ± 11 | 100 ± 11 | 99 ± 15 | 100 ± 12 | 100 ± 13 | 97 ± 11
NNC(=O)c1ccncc1 [INH, Isoniazid, reference compound] | 0.25 | 0.25 µg/mL and 1.8 µM |  |  | 1.8 |  |  |  |  |  |  |  | 
CO[C@H]1/C=C/O[C@@]2(C)Oc3c(C)c(O)c4c(O)c(c(/C=N/N5CCN(C)CC5)c(O)c4c3C2=O)NC(=O)/C(C)=C\C=C\[C@H](C)[C@H](O)[C@@H](C)[C@@H](O)[C@@H](C)[C@H](OC(C)=O)[C@@H]1C [RIF, reference compound] | 0.5 |  |  |  | 0.6 |  |  |  |  |  |  |  | 
